# Data taken from patent US20180065917A1, “IMMUNE CHECKPOINT INHIBITORS, COMPOSITIONS AND METHODS THEREOF” (Polaris Pharmaceuticals, Inc., priority 2016, published 2018).
# pIC50: −log10 of the molar value. Where a name gives a salt, the structure may show the parent alone.
# Biological target: T1, PD-L1/PD-1 complex formation (Homo sapiens, UniProt Q9NZQ7)
# T1 construct: purchased BPS Bioscience
# Test: PD-L1/PD-1 Interaction Assay (ELISA platform)
# Format: binding
# Conditions: human PD-1-Fc coated plates, PD-L1-Fc-biotin 0.1 μg/ml, compounds pre-incubated 2 hours
# Experimental: The ability of compounds to block PD-L1/PD-1 complex formation was evaluated using biochemical interaction assay based on the ELISA platform.
# EIA/RIA high binding 96-well plates (Costar) were coated with human PD-1-Fc protein diluted in PBS to 0.5 μg/ml overnight at 4° C. The PD-1-Fc coated plates were washed in PBST and blocked in blocking buffer (2% BSA in PBST). Serially diluted compounds were pre-incubated with PD-L1-Fc-biotin (0.1 μg/ml final) for 2 hours on a shaker at room temperature. The PD-1-Fc coated plates were washed with PBST and solutions containing PD-L1 and compounds were added to the plates. The PD-1-Fc coated plates were incubated with PD-L1 and compound solution for 2 hours on a shaker at room temperature. After the incubation unbound PD-L1 was washed away with PBST and plates were incubated with the blocking buffer for 10 minutes. The bound PD-L1-Fc-biotin was detected with streptavidin-HRP and TMB substrate. The plates were read at OD450 nm in a plate reader (i3 from Molecular Devices) and percentages of inhibition of PD-L1/PD-1 complex formation were calculated.
# PD-1-Fc protein was made at Polaris and PD-L1-Fc was purchased from BPS Bioscience.
# T1 sequence (Q9NZQ7 19-239 limits assumed, one chain of several): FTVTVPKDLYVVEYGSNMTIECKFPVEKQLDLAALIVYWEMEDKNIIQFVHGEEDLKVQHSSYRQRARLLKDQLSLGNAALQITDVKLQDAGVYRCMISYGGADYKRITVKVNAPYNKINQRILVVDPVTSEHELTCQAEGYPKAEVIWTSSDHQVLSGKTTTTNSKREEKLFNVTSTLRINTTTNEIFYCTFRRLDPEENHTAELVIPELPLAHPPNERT
row,Compound,pIC50
1,"Cc1c(COc2ccc(CNCCO)cc2Br)cccc1-c1cccc(COc2ccc(CNCCO)cc2Br)c1C [Example 5, 2,2′-((((((2,2′-Dimethyl-[1,1′-biphenyl]-3,3′-diyl)bis(methylene))bis(oxy))bis(3-bromo-4,1-phenylene))bis(methylene))bis(azanediyl))bis(ethan-1-ol) di-trifluoroacetic acid salt]",8.00 to 10.00
2,"Cc1c(COc2ccc(CN3CCCC[C@H]3C(=O)NCCN(C)C)cc2Br)cccc1-c1cccc(COc2ccc(CN3CCCC[C@H]3C(=O)NCCN(C)C)cc2Br)c1C [Example 25, (2S,2′S)-1,1′-(((((2,2′-Dimethyl-[1,1′-biphenyl]-3,3′-diyl)bis(methylene))bis(oxy))bis(3-bromo-4,1-phenylene))bis(methylene))bis(N-(2-(dimethylamino)ethyl)piperidine-2-carboxamide)]",4.52 to 6.00
3,"Cc1c(COc2ccc(CN[C@H](C)C(=O)O)cc2Br)cccc1-c1cccc(COc2ccc(CN[C@H](C)C(=O)O)cc2Br)c1C [Example 16, (2R,2′R)-2,2′-((((((2,2′-Dimethyl-[1,1′-biphenyl]-3,3′-diyl)bis(methylene))bis(oxy))bis(3-bromo-4,1-phenylene))bis(methylene))bis(azanediyl))dipropionic acid di-trifluoroacetic acid salt]",7.00 to 7.96
4,"Cc1c(COc2ccc(CN3CCCC[C@H]3C(N)=O)cc2Br)cccc1-c1cccc(COc2ccc(CN3CCCC[C@H]3C(N)=O)cc2Br)c1C [Example 23, (2S,2′S)-1,1′-(((((2,2′-Dimethyl-[1,1′-biphenyl]-3,3′-diyl)bis(methylene))bis(oxy))bis(3-bromo-4,1-phenylene))bis(methylene))bis(piperidine-2-carboxamide)]",4.52 to 6.00
5,"Cc1c(COc2ccc(CNC(C)(CO)CO)cc2Br)cccc1-c1cccc(COc2ccc(CNC(C)(CO)CO)cc2Br)c1C [Example 33, 2,2′-((((((2,2′-Dimethyl-[1,1′-biphenyl]-3,3′-diyl)bis(methylene))bis(oxy))bis(3-bromo-4,1-phenylene))bis(methylene))bis(azanediyl))bis(2-methylpropane-1,3-diol) di-trifluoroacetic acid salt]",8.00 to 10.00
6,"Cc1c(COc2ccc(CN3CCCC[C@@H]3C(=O)O)cc2Br)cccc1-c1cccc(COc2ccc(CN3CCCC[C@@H]3C(=O)O)cc2Br)c1C [Example 2, (2R,2′R)-1,1′-(((((2,2′-dimethyl-[1,1′-biphenyl]-3,3′-diyl)bis(methylene))bis(oxy))bis(3-bromo-4,1-phenylene))bis(methylene))bis(piperidine-2-carboxylic acid)]",7.00 to 7.96
7,"Cc1c(COc2ccc(CNC(CO)CO)cc2Br)cccc1-c1cccc(COc2ccc(CNC(CO)CO)cc2Br)c1C [Example 32, 2,2′-((((((2,2′-Dimethyl-[1,1′-biphenyl]-3,3′-diyl)bis(methylene))bis(oxy))bis(3-bromo-4,1-phenylene))bis(methylene))bis(azanediyl))bis(propane-1,3-diol) di-trifluoroacetic acid salt]",8.00 to 10.00
8,"CSc1cc(CN2CCCC[C@H]2C(=O)O)ccc1OCc1cccc(-c2cccc(COc3ccc(CN4CCCC[C@H]4C(=O)O)cc3SC)c2C)c1C [Example 28, (2S,2′S)-1,1′-(((((2,2′-Dimethyl-[1,1′-biphenyl]-3,3′-diyl)bis(methylene))bis(oxy))bis(3-(methylthio)-4,1-phenylene))bis(methylene))bis(piperidine-2-carboxylic acid) di-trifluoroacetic acid salt]",6.00 to 6.96
9,"Cc1c(COc2ccc(CN[C@@H](C(=O)O)[C@H](C)O)cc2Br)cccc1-c1cccc(COc2ccc(CN[C@@H](C(=O)O)[C@H](C)O)cc2Br)c1C [Example 18, (2R,2′R,3S,3′S)-2,2′-((((((2,2′-Dimethyl-[1,1′-biphenyl]-3,3′-diyl)bis(methylene))bis(oxy))bis(3-bromo-4,1-phenylene))bis(methylene))bis(azanediyl))bis(3-hydroxybutanoic acid) di-trifluoroacetic acid salt]",8.00 to 10.00
10,"Cc1c(COc2ccc(CN(CCO)CCO)cc2Br)cccc1-c1cccc(COc2ccc(CN(CCO)CCO)cc2Br)c1C [Example 31, 2,2′,2″,2′″-((((((2,2′-Dimethyl-[1,1′-biphenyl]-3,3′-diyl)bis(methylene))bis(oxy))bis(3-bromo-4,1-phenylene))bis(methylene))bis(azanetriyl))tetrakis(ethan-1-ol) di-trifluoroacetic acid salt]",7.00 to 7.96
11,"Cc1c(COc2ccc(CN[C@H](CO)C(=O)O)cc2Br)cccc1-c1cccc(COc2ccc(CN[C@H](CO)C(=O)O)cc2Br)c1C [Example 17, (2R,2′R)-2,2′-((((((2,2′-Dimethyl-[1,1′-biphenyl]-3,3′-diyl)bis(methylene))bis(oxy))bis(3-bromo-4,1-phenylene))bis(methylene))bis(azanediyl))bis(3-hydroxypropanoic acid) di-trifluoroacetic acid salt]",8.00 to 10.00
12,"Cc1c(COc2ccc(CN3CCCC[C@H]3C(=O)NCCO)cc2Br)cccc1-c1cccc(COc2ccc(CN3CCCC[C@H]3C(=O)NCCO)cc2Br)c1C [Example 24, (2S,2′S)-1,1′-(((((2,2′-Dimethyl-[1,1′-biphenyl]-3,3′-diyl)bis(methylene))bis(oxy))bis(3-bromo-4,1-phenylene))bis(methylene))bis(N-(2-hydroxyethyl)piperidine-2-carboxamide)]",6.00 to 6.96
13,"Cc1c(COc2ccc(CN[C@@H](C)C(=O)O)cc2Br)cccc1-c1cccc(COc2ccc(CN[C@@H](C)C(=O)O)cc2Br)c1C [Example 15, (2S,2′S)-2,2′-((((((2,2′-Dimethyl-[1,1′-biphenyl]-3,3′-diyl)bis(methylene))bis(oxy))bis(3-bromo-4,1-phenylene))bis(methylene))bis(azanediyl))dipropionic acid di-trifluoroacetic acid salt]",8.00 to 10.00
14,"COC(=O)[C@@H]1CCCCN1Cc1ccc(OCc2cccc(-c3cccc(COc4ccc(CN5CCCC[C@H]5C(=O)OC)cc4Br)c3C)c2C)c(Br)c1 [Example 4, Dimethyl 1,1′-(((((2,2′-dimethyl-[1,1′-biphenyl]-3,3′-diyl)bis(methylene))bis(oxy))bis(3-bromo-4,1-phenylene))bis(methylene))(2S,2′S)-bis(piperidine-2-carboxylate)]",< 4.52
15,"COc1nc(OCc2cccc(-c3cccc(COc4ccc(CNCCNC(C)=O)c(OC)n4)c3C)c2C)ccc1CNCCNC(C)=O [Example 3, N,N′-(((((((2,2′-Dimethyl-[1,1′-biphenyl]-3,3′-diyl)bis(methylene))bis(oxy))bis(2-methoxypyridine-6,3-diyl))bis(methylene))bis(azanediyl))bis(ethane-2,1-diyl))diacetamide]",7.00 to 7.96
16,"CCc1cc(CN2CCCC[C@H]2C(=O)O)ccc1OCc1cccc(-c2cccc(COc3ccc(CN4CCCC[C@H]4C(=O)O)cc3CC)c2C)c1C [Example 27, (2S,2′S)-1,1′-(((((2,2′-Dimethyl-[1,1′-biphenyl]-3,3′-diyl)bis(methylene))bis(oxy))bis(3-ethyl-4,1-phenylene))bis(methylene))bis(piperidine-2-carboxylic acid) di-trifluoroacetic acid salt]",6.00 to 6.96
17,"Cc1c(COc2ccc(CN3CCCC[C@H]3C(=O)O)cc2C(F)F)cccc1-c1cccc(COc2ccc(CN3CCCC[C@H]3C(=O)O)cc2C(F)F)c1C [Example 29, (2S,2′S)-1,1′-(((((2,2′-Dimethyl-[1,1′-biphenyl]-3,3′-diyl)bis(methylene))bis(oxy))bis(3-(difluoromethyl)-4,1-phenylene))bis(methylene))bis(piperidine-2-carboxylic acid) di-trifluoroacetic acid salt]",8.00 to 10.00
18,"C#Cc1cc(CN2CCCC[C@H]2C(=O)O)ccc1OCc1cccc(-c2cccc(COc3ccc(CN4CCCC[C@H]4C(=O)O)cc3C#C)c2C)c1C [Example 26, (2S,2′S)-1,1′-(((((2,2′-Dimethyl-[1,1′-biphenyl]-3,3′-diyl)bis(methylene))bis(oxy))bis(3-ethynyl-4,1-phenylene))bis(methylene))bis(piperidine-2-carboxylic acid) di-trifluoroacetic acid salt]",7.00 to 7.96
19,"Cc1c(COc2ccc(CNC(C)(C)C(=O)O)cc2Br)cccc1-c1cccc(COc2ccc(CNC(C)(C)C(=O)O)cc2Br)c1C [Example 14, 2,2′-((((((2,2′-Dimethyl-[1,1′-biphenyl]-3,3′-diyl)bis(methylene))bis(oxy))bis(3-bromo-4,1-phenylene))bis(methylene))bis(azanediyl))bis(2-methylpropanoic acid) di-trifluoroacetic acid salt]",8.00 to 10.00
20,"Cc1c(COc2ccc(CN(CC(=O)O)CC(=O)O)cc2Br)cccc1-c1cccc(COc2ccc(CN(CC(=O)O)CC(=O)O)cc2Br)c1C [Example 30, 2,2′,2″,2′″-((((((2,2′-Dimethyl-[1,1′-biphenyl]-3,3′-diyl)bis(methylene))bis(oxy))bis(3-bromo-4,1-phenylene))bis(methylene))bis(azanetriyl))tetraacetic acid di-trifluoroacetic acid salt]",6.00 to 6.96
